Results published in US11603359B2, “Benzothiadiazepine compounds and their use as bile acid modulators” (Albireo AB, priority 2019, dated 2023).

Tests used:
human LBAT = molecular target: T1, human LBAT (Homo sapiens, UniProt Q14973); assay: LBAT (h/m) assay, human LBAT-overexpressing cells, 3H-taurocholic acid uptake; type: cell-based; conditions: 0.3 μM 3H-taurocholic acid + 7.5 μM cold taurocholic acid, 20 minutes, read-out: hLBAT IC50
T1 construct: expressed in transfected cells; Geneticin-selected LBAT-overexpressing cells
T1 sequence (Q14973 1-349): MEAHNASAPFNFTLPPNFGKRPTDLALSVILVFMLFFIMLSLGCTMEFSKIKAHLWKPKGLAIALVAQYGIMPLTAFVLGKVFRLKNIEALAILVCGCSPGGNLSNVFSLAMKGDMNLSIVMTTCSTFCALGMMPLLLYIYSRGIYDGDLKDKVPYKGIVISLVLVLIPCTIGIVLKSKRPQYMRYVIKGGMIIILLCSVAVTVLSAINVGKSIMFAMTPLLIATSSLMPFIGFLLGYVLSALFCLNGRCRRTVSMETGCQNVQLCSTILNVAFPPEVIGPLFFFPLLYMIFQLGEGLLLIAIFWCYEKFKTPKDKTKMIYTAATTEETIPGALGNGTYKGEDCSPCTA
Method: 20,000 cells (Human or Mouse LBAT-overexpressing cells) were seeded in 96-wells plate (Corning CLS3809) in 100 μL MEM-alpha medium (Gibco 12571-063) supplemented with 10% FBS (Gibco 10438026) containing Geneticin (Gibco 10131-027) (1 mg/mL) and incubated at 37° C. in 5% CO2 for 24 hours. After incubation, media was decanted from the wells and cells were washed two times with 300 μL of basal MEM-alpha medium (FBS-free). After decanting basal MEM-alpha medium each time, plates were tapped against paper towel to ensure maximum removal of residual media.
For human LBAT, incubation mix was prepared by adding test inhibitor dilutions (3-fold serial dilution in DMSO (Sigma D2650), 10 points) in MEM-alpha (without FBS) containing 0.3 μM 3H-taurocholic acid (ARC ART-1368) and 7.5 μM cold taurocholic acid (Sigma T4009) (maintaining 0.2% final DMSO concentration). For mouse LBAT, incubation mix was prepared by adding test inhibitor dilutions (3-fold serial dilution in DMSO, 10 points) in MEM-alpha (without FBS) containing 0.3 μM 3H-taurocholic acid and 25 μM cold taurocholic acid maintaining 0.2% final DMSO concentration).
50 μL of incubation mix containing test inhibitors was then added to the wells (in duplicate) and the plates were incubated for 20 minutes in a CO2 incubator at 37° C. After incubation, the reaction was stopped by keeping the plates on ice water mix for 2-3 minutes and then the incubation mix was aspirated completely from the wells. The wells were washed two times with 250 μL of chilled unlabelled 1 mM taurocholic acid dissolved in HEPES (Gibco 15630080)-buffered (10 mM) HBSS (Gibco 14175079) (pH 7.4). The plates were tapped against a paper towel after every wash to ensure maximum removal of blocking buffer.
100 μL of MicroScint-20 (PerkinElmer 6013621) was added to the wells and kept overnight at room temperature before reading the plates in TopCount NXT™ Microplate Scintillation and Luminescence Counter from PerkinElmer under 3H Test protocol (set at 120 seconds reading time per well, with normal plate orientation).
All test compounds were provided in powder form at room temperature. 10 mM DMSO stocks of the test compounds were prepared, aliquoted and stored at −20° C. From the 10 mM DMSO stock of the compounds, a 3-fold serial dilution in DMSO was prepared to get a total of 10 dilutions of the test compounds. 0.5 μL of this dilution in DMSO was added to 250 μL of FBS-free basal media containing 3H-taurocholic acid and cold taurocholic acid to prepare the incubation mixture.

[1] = Bidirectional permeability assay (Caco-2 cells); type: in vitro ADME; conditions: human, pH 7.4, Caco-2 monolayers, absorptive direction (A2B), FaSSIF donor buffer
Method: Caco-2 cells (Evotec) were seeded at a density of 70,000 cells/well in Millicell® 24-well cell culture insert plates and maintained in an incubator (37° C., 5% CO2, 95% RH) for 21 days with media change on alternate days.
Stock solutions (10 mM) of the test compounds, atenolol (low permeability marker), propranolol (high permeability marker) and digoxin (substrate for P-gp transport pathway) were prepared in dimethylsulfoxide (DMSO). An intermediate stock solution (1 mM) was prepared by diluting 10 μL of 10 mM master stock solution with 90 μL of neat DMSO. A working stock solution (10 μM) was prepared by diluting 50 μL of 1 mM with 4950 μL of FaSSIF buffer. Post addition of compounds to the FaSSIF, samples were subjected to sonication for 2 hours, and centrifuged at 4000 RPM for 30 minutes at 37° C. The 4 mL of resultant supernatant was directly used in the assay. The final DMSO concentration in the transport experiments was 1%.
On the day of assay, Caco-2 monolayers were washed twice with transport buffer (HBSS, pH 7.4) and pre-incubated for 30 min (37° C., 5% CO2, 95% RH) in an incubator. The electrical resistance of the monolayers was measured with a Millicell®—ERS system. Monolayers with trans-epithelial electrical resistance (TEER) values greater than 350 ohm·cm^2 were selected for the assay.
The assay was conducted in absorptive direction (A2B) and secretory (B2A) directions. Transport experiments were initiated by addition of transport assay buffer (FaSSIF buffer prepared in HBSS) consisting of compounds to the donor compartment (apical chamber A-B; basolateral chamber B-A) in duplicate (n=2) wells. Drug free HBSS buffer (pH 7.4) containing 1% bovine serum albumin (BSA) was introduced to the receiver (A-B-basolateral; B-A-Apical) compartments. The volumes of apical and basolateral compartments were 0.4 and 0.8 mL, respectively. After adding dosing solution, plates were incubated in an incubator for 120 minutes at 37° C. After 120 minutes, donor and receiver samples were collected and matrix matched (1:1, 30 μL study sample+30 μL blank buffer) with the opposite buffer. Dosing samples matrix matched (1:1, 30 μL study sample+30 μL blank buffer) with the opposite buffer. Samples were processed by adding acetonitrile containing internal standard (60 μL study sample+200 μL acetonitrile containing internal standard—Tolbutamide, 500 ng/mL). Samples were vortexed and centrifuged at 4000 rpm for 10 minutes. The obtained supernatant (100 μL) was diluted with 100 μL of water and transferred to fresh 96 well plates. The concentration of compounds in the samples was analyzed by liquid chromatography tandem mass spectrometry (LC-MS/MS) method using discovery grade bio-analytical method, as applicable.
The mean apparent permeability (Papp, ×10^−6 cm/sec) of the test compounds, atenolol, propranolol and digoxin were calculated as follows:
[formula] where dq/dt=rate of transport (rate of transport of compound in the receiver compartment), C0=initial concentration in the donor compartment, A=surface area of the effective filter membrane.

| Compound | IC50 (human LBAT) [µM] | Papp A→B at 120 min, 10 µM [1] [×10⁻⁶ cm/s] |
| --- | --- | --- |
| CCCCC1(CC)CN(c2ccccc2)c2cc(N(C)C)c(OCCC(=O)O)cc2S(=O)(=O)N1 (racemic) [Example 11, 3-((3-Butyl-7-(dimethylamino)-3-ethyl-1,1-dioxido-5-phenyl-2,3,4,5-tetrahydro-1,2,5-benzothiadiazepin-8-yl)oxy)propanoic acid] | 1.17 | 13.1 |
| CCCCC1(CC)CN(c2ccccc2)c2cc(SC)c(OCCC(=O)O)cc2S(=O)(=O)N1 (single isomer, unassigned) [Example 4, 3-((3-butyl-3-ethyl-7-(methylthio)-1,1-dioxido-5-phenyl-2,3,4,5-tetrahydro-1,2,5-benzothiadiazepin-8-yl)oxy)propanoic acid] | 3.65 | 7.6 |
| CCCCC1(CCCC)CN(c2ccccc2)c2cc(SC)c(OCCC(=O)O)cc2S(=O)(=O)N1 [Example 1, 3-((3,3-Dibutyl-7-(methylthio)-1,1-dioxido-5-phenyl-2,3,4,5-tetrahydro-1,2,5-benzothiadiazepin-8-yl)oxy)propanoic acid] | 2.91 | 9.2 |
| CCCCC1(CCCC)CN(c2ccccc2)c2cc(SC)c(OC(C)CC(=O)O)cc2S(=O)(=O)N1 (stereo not drawn) [Example 8, 3-((3,3-Dibutyl-7-(methylthio)-1,1-dioxido-5-phenyl-2,3,4,5-tetrahydro-1,2,5-benzothiadiazepin-8-yl)oxy)butanoic acid] | 2.63 | 9.5 |
| CCCCC1(CCCC)CN(c2ccc(O)cc2)c2cc(SC)c(OCCC(=O)O)cc2S(=O)(=O)N1 [Example 10, 3-((3,3-dibutyl-5-(4-hydroxyphenyl)-7-(methylthio)-1,1-dioxido-2,3,4,5-tetrahydro-1,2,5-benzothiadiazepin-8-yl)oxy)propanoic acid] | 7.21 | 2.1 |

Further compounds by falling IC50 (human LBAT), results first:

| IC50 (human LBAT) [µM] | Papp A→B at 120 min, 10 µM [1] [×10⁻⁶ cm/s] | Compound |
| --- | --- | --- |
| 2.22 | 0.4 | CCCCC1(CCCC)CN(c2ccccc2)c2cc(SC)c(OCC(O)C(=O)O)cc2S(=O)(=O)N1 (single isomer, unassigned) [Example 7, 3-((3,3-dibutyl-7-(methylthio)-1,1-dioxido-5-phenyl-2,3,4,5-tetrahydro-1,2,5-benzothiadiazepin-8-yl)oxy)-2-hydroxypropanoic acid] |
| 2.22 | 14.2 | CCCCC1(CC)CN(c2ccccc2)c2cc(N(C)C)c(OCCC(=O)O)cc2S(=O)(=O)N1 (single isomer, unassigned) [Example 12, 3-((3-butyl-7-(dimethylamino)-3-ethyl-1,1-dioxido-5-phenyl-2,3,4,5-tetrahydro-1,2,5-benzothiadiazepin-8-yl)oxy)propanoic acid] |
| 1.88 | 1 | CCCCC1(CCCC)CN(c2ccccc2)c2cc(SC)c(OCC(O)C(=O)O)cc2S(=O)(=O)N1 (racemic) [Example 5, 3-((3,3-dibutyl-7-(methylthio)-1,1-dioxido-5-phenyl-2,3,4,5-tetrahydro-1,2,5-benzothiadiazepin-8-yl)oxy)-2-hydroxypropanoic acid] |
| 1.62 | 10 | CCCCC1(CCCC)CN(c2ccccc2)c2cc(Cl)c(OCCC(=O)O)cc2S(=O)(=O)N1 [Example 9, 3-((3,3-dibutyl-7-chloro-1,1-dioxido-5-phenyl-2,3,4,5-tetrahydro-1,2,5-benzothiadiazepin-8-yl)oxy)propanoic acid] |
